In PMC10384246, “Discovery of New Uracil and Thiouracil Derivatives as Potential HDAC Inhibitors” (Pharmaceuticals, 2023):
Where “and” joins values, the source holds several entries; their conditions need not be identical. Equal values may be shown once.

What was measured:
[1] = tested on: HepG2 (human liver carcinoma cell line); experiment: MTT anti-proliferative assay, HepG2; format: cell-based; conditions: HepG2, mean of at least three experiments, read-out: Cytotoxicity IC50 HepG-2
Procedure: (§1) Sorafenib was used as a reference drug.
(§2) Anti-proliferative activity activities were tested using MTT assay as described in Supplementary Materials. […]
(§3) S2.1. In vitro anti-proliferative activities
(§4) The in vitro antiproliferative activities of all the synthesized compounds against three human tumor cell lines namely, MCF-7 (human breast cancer cell line), HepG2 (human liver […]
(§5) in the literature, using MTT assay protocol. Sorafenib was used in this test as a positive control.
(§6) The anti-proliferative activity was assessed quantitatively as follows.
(§7) Human cancer cell lines were seeded in 96-well plates at a density of 3-8 × 10^3 cells/well.
(§8) Next, the cells were incubated for 12 h in a 5% CO2 incubator at 37 °C. Then, for each well, the growth medium was exchanged with 0.1 ml of fresh medium containing graded concentrations of the test compounds or equal DMSO. Then 10 μl MTT solution ([…]) was added to each well, and the cells were incubated for additional 4 h. The crystals of MTT-formazan were dissolved in 100 μl of DMSO; the absorbance of each well was measured at 490 nm using an automatic ELISA reader system (TECAN, CHE). The IC50 values were calculated using the nonlinear regression fitting models (Graph Pad, Prism Version 5). The data represented the mean of three independent experiments in triplicate and were expressed as means ± SD. The IC50 value was […]
(§9) defined as the concentration at which 50% of the cells could survive. […]

[2] = molecular target: HDAC4 (Homo sapiens, UniProt P56524); experiment: In vitro HDAC4 inhibitory assay; format: biochemical
Sequence of HDAC4 (P56524 whole entry): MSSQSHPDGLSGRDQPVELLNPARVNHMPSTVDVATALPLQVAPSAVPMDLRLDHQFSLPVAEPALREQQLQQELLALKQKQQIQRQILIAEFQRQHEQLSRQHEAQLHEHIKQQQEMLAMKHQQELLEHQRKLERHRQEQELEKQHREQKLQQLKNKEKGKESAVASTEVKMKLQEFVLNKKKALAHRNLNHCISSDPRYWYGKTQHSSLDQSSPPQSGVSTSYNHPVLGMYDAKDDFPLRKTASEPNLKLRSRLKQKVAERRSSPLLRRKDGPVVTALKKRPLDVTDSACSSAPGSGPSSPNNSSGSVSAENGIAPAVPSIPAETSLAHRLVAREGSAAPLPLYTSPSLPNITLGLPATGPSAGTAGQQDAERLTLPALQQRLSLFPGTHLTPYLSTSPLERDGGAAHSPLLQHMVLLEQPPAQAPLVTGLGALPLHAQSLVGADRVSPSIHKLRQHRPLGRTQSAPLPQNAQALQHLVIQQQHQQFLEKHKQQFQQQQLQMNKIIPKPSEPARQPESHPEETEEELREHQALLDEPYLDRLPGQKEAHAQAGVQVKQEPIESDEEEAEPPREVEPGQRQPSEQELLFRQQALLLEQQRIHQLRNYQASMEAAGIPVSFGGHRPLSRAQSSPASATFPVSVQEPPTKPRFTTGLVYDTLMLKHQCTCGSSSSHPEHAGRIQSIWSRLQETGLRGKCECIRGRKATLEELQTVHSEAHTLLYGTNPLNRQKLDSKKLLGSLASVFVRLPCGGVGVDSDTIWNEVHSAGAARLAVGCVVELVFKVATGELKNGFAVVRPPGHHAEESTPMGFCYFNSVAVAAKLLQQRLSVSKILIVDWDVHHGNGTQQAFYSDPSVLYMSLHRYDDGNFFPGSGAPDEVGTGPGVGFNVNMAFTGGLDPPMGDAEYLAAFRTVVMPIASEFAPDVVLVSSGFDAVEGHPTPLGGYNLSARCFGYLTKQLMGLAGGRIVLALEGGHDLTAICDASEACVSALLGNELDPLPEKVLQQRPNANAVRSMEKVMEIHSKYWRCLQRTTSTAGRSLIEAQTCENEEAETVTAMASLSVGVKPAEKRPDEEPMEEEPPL

[3] = tested on: colorectal carcinoma (HCT-116); experiment: MTT anti-proliferative assay, HCT-116; format: cell-based; conditions: Homo sapiens, HCT-116, read-out: Cytotoxicity IC50 HCT-116
Procedure: as §1, §2, §3, §4, §5, §6, §7, §8, §9

[4] = molecular target: HDAC1 (Homo sapiens, UniProt Q13547); experiment: In vitro HDAC1 inhibitory assay; format: biochemical
Sequence of HDAC1 (Q13547 whole entry): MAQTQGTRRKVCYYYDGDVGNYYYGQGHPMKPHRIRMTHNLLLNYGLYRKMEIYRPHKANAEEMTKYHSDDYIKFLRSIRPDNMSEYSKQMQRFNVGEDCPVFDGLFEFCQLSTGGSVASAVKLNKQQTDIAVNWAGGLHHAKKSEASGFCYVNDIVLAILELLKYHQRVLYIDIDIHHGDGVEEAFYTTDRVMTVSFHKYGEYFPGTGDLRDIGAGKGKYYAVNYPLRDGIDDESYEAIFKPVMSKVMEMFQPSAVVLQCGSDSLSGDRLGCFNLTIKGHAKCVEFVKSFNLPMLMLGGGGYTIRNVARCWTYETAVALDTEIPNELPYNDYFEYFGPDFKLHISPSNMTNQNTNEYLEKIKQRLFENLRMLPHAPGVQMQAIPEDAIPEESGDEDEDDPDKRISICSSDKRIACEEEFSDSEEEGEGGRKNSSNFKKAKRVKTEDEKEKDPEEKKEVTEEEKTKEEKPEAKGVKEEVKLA

[5] = tested on: MCF-7 (human breast cancer cell line); experiment: MTT anti-proliferative assay, MCF-7; format: cell-based; conditions: MCF7, MCF-7, mean of at least three experiments, read-out: Cytotoxicity IC50 MCF-7
Procedure: as §1, §2, §3, §4, §5, §6, §7, §8, §9

IC50 [2] | IC50 [4] | melting point | SMILES | IC50 [1] | IC50 [3] | IC50 [5]
12.2 µM | 3.11 µM | > 300 °C | CCn1c(N)c(C(c2ccccc2)c2c(N)n(CC)c(=S)[nH]c2=O)c(=O)[nH]c1=S [Compound 5a, 5,5′-(Phenylmethylene)bis(6-amino-1-ethyl-2-thioxo-2,3-dihydropyrimidin-4(1H)-one)] | 39 ± 2.5 µM | 88 ± 2.4 µM | 11 ± 1.6 µM
18 µM | 2.27 µM | 239 to 240 °C | CCn1c(N)c(C(c2ccc(C)cc2)c2c(N)n(CC)c(=S)[nH]c2=O)c(=O)[nH]c1=S [Compound 5b, 5,5′-(p-Tolylmethylene)bis(6-amino-1-ethyl-2-thioxo-2,3-dihydropyrimidin-4(1H)-one)] | 51 ± 4 µM | 21 ± 2.4 µM | 55 ± 2.8 µM
 |  | > 300 °C | CCn1c(N)c(C(c2ccc(Cl)cc2)c2c(N)n(CC)c(=S)[nH]c2=O)c(=O)[nH]c1=S [Compound 5c, 5,5′-((4-Chlorophenyl)methylene)bis(6-amino-1-ethyl-2-thioxo-2,3-dihydropyrimidin-4(1H)-one)] | 89 ± 2.4 µM | 97 ± 1.2 µM | 77 ± 2.3 µM
 |  | 272 to 273 °C | CCn1c(N)c(C(c2ccc(Cl)cc2Cl)c2c(N)n(CC)c(=S)[nH]c2=O)c(=O)[nH]c1=S [Compound 5d, 5,5′-((2,4-Dichlorophenyl)methylene)bis(6-amino-1-ethyl-2-thioxo-2,3-dihydropyrimidin-4(1H)-one)] | 40 ± 2.7 µM | 281 ± 2.1 µM | 62 ± 2.1 µM
 |  | 260 to 261 °C | CCn1c(N)c(C(c2ccc(OC)cc2)c2c(N)n(CC)c(=S)[nH]c2=O)c(=O)[nH]c1=S [Compound 5e, 5,5′-((4-Methoxyphenyl)methylene)bis(6-amino-1-ethyl-2-thioxo-2,3-dihydropyrimidin-4(1H)-one)] | 42 ± 2 µM | 90 ± 3 µM | 60 ± 0.49 µM
12.2 µM | 4 µM | 274 to 275 °C | CCn1c(N)c(C(c2ccc([N+](=O)[O-])cc2)c2c(N)n(CC)c(=S)[nH]c2=O)c(=O)[nH]c1=S [Compound 5f, 5,5′-((4-Nitrophenyl)methylene)bis(6-amino-1-ethyl-2-thioxo-2,3-dihydropyrimidin-4(1H)-one)] | 49 ± 0.17 µM | 71 ± 2.1 µM | 9.3 ± 3.4 µM
 |  | 271 to 272 °C | CCn1c(N)c(C(c2cccs2)c2c(N)n(CC)c(=S)[nH]c2=O)c(=O)[nH]c1=S [Compound 5g, 5,5′-(Thiophen-2-ylmethylene)bis(6-amino-1-ethyl-2-thioxo-2,3-dihydropyrimidin-4(1H)-one)] | 33 ± 3.8 µM | 68 ± 1.8 µM | 21 ± 2.2 µM
 |  |  | CCCn1c(N)c(Cc2c(N)n(CCC)c(=O)[nH]c2=O)c(=O)[nH]c1=O [Compound 5h, 5,5′-Methylenebis(6-amino-1-propylpyrimidine-2,4(1H,3H)-dione)] | 52 ± 3.2 µM | 91 ± 1.9 µM | 88 ± 2.5 µM
19.5 µM | 0.342 µM and 0.352 µM | 294 to 295 °C | CCCn1c(N)c(C(c2ccccc2)c2c(N)n(CCC)c(=O)[nH]c2=O)c(=O)[nH]c1=O [Compound 5i, 5,5′-(Phenylmethylene)bis(6-amino-1-propylpyrimidine-2,4(1H,3H)-dione)] | 4 ± 1 µM | 64 ± 2.1 µM | 261 ± 2.5 µM
 |  | 286 to 287 °C | CCCn1c(N)c(C(c2ccc(C)cc2)c2c(N)n(CCC)c(=O)[nH]c2=O)c(=O)[nH]c1=O [Compound 5j, 5,5′-(p-Tolylmethylene)bis(6-amino-1-propylpyrimidine-2,4(1H,3H)-dione)] | 38 ± 1.8 µM | 400 ± 2.4 µM | 71 ± 2 µM
13 µM | 0.464 µM | 285 to 286 °C | CCCn1c(N)c(C(c2ccc(Cl)cc2Cl)c2c(N)n(CCC)c(=O)[nH]c2=O)c(=O)[nH]c1=O [Compound 5k, 5,5′-((2,4-Dichlorophenyl)methylene)bis(6-amino-1-propylpyrimidine-2,4(1H,3H)-dione)] | 5 ± 2 µM | 80 ± 2.6 µM | 242 ± 2 µM
 |  | 289 to 290 °C | CCCn1c(N)c(C(c2ccc(OC)cc2)c2c(N)n(CCC)c(=O)[nH]c2=O)c(=O)[nH]c1=O [Compound 5l, 5,5′-((4-Methoxyphenyl)methylene)bis(6-amino-1-propylpyrimidine-2,4(1H,3H)-dione)] | 31 ± 2 µM | 83 ± 1.9 µM | 381 ± 1.5 µM
 |  | 255 to 256 °C | CCn1c2c(c(=O)[nH]c1=S)C(c1ccccc1)c1c(n(CC)c(=S)[nH]c1=O)N2 [Compound 6a, 1,9-Diethyl-5-phenyl-2,8-dithioxo-2,3,5,8,9,10-hexahydropyrido[2,3-d:6,5-d′]dipyrimidine-4,6(1H,7H)-dione] | 220 ± 3 µM | 291 ± 3.5 µM | 333 ± 2.9 µM
 |  | 251 to 252 °C | CCn1c2c(c(=O)[nH]c1=S)C(c1ccc([N+](=O)[O-])cc1)c1c(n(CC)c(=S)[nH]c1=O)N2 [Compound 6b, 1,9-Diethyl-5-(4-nitrophenyl)-2,8-dithioxo-2,3,5,8,9,10-hexahydropyrido[2,3-d:6,5-d′]dipyrimidine-4,6(1H,7H)-dione] | 184 ± 3.7 µM | 299 ± 2 µM | 577 ± 20 µM
 |  | 180 to 181 °C | CCCn1c2c(c(=O)[nH]c1=O)C(c1ccc(OC)cc1)c1c(n(CCC)c(=O)[nH]c1=O)N2 [Compound 6c, 5-(4-Methoxyphenyl)-1,9-dipropyl-5,10-dihydropyrido[2,3-d:6,5-d′]dipyrimidine-2,4,6,8(1H,3H,7H,9H)-tetraone] | 114 ± 2.2 µM | 466 ± 4.6 µM | 435 ± 4.3 µM
 |  |  | CCCn1c2c(c(=O)[nH]c1=O)Cc1c(n(CCC)c(=O)[nH]c1=O)N2 [Compound 6d, 1,9-Dipropyl-5,10-dihydropyrido[2,3-d:6,5-d′]dipyrimidine-2,4,6,8 (1H,3H,7H,9H)-tetraone] | 168 ± 1.5 µM | 361 ± 2 µM | 413 ± 1.3 µM
 |  | 224 to 225 °C | CCn1c(=S)[nH]c(=O)c2c(-c3ccc(Cl)cc3)c3c(=O)[nH]c(=S)n(CC)c3nc21 [Compound 7a, 5-(4-Chlorophenyl)-1,9-diethyl-2,8-dithioxo-2,3,8,9-tetrahydropyrido[2,3-d:6,5-d′]dipyrimidine-4,6(1H,7H)-dione] | 189 ± 4.8 µM | 361 ± 1.9 µM | 472 ± 3.2 µM
 |  | 221 °C | CCn1c(=S)[nH]c(=O)c2c(-c3ccc(OC)cc3)c3c(=O)[nH]c(=S)n(CC)c3nc21 [Compound 7b, 1,9-Diethyl-5-(4-methoxyphenyl)-2,8-dithioxo-2,3,8,9-tetrahydropyrido[2,3-d:6,5-d′]dipyrimidine-4,6(1H,7H)-dione] | 173 ± 4.5 µM | 301 ± 3.4 µM | 871 ± 3.2 µM
 |  | 216 to 217 °C | CCn1c(=S)[nH]c(=O)c2c(-c3cccs3)c3c(=O)[nH]c(=S)n(CC)c3nc21 [Compound 7c, 1,9-Diethyl-5-(thiophen-2-yl)-2,8-dithioxo-2,3,8,9-tetrahydropyrido[2,3-d:6,5-d′]dipyrimidine-4,6(1H,7H)-dione] | 221 ± 2.5 µM | 243 ± 2.2 µM | 450 ± 2.2 µM
 |  |  | CNC(=O)c1cc(Oc2ccc(NC(=O)Nc3ccc(Cl)c(C(F)(F)F)c3)cc2)ccn1 [Sorafenib, reference compound] | 17 ± 2.3 µM | 177 ± 0.9 µM | 141 ± 3 µM
